# Assay: in vitro
# Details: human, hela cells, % viability
Structure (SMILES),"viability at 28.5 h, 10 µM [%]","viability at 28.5 h, 10 µM (bulk resorufin, single well) [%]"
CC1(C)Cc2c(sc(NC(=O)C3CC(Cl)=CCC3C(=O)O)c2C#N)CO1 (stereo not shown) [CBK265002],97.6,–
CC(=O)Nc1ccc(-c2ccc(C(=O)N3CCC(Sc4ccccc4)CC3)cn2)cc1 [CBK160188],99.6,–
CCN(CC)CCn1c(OC)cc(=O)[nH]c1=O [CBK264411],97.5,–
CCn1cnc2cc(NC(=O)C3CC4C=CC3C43CC3)ccc21 (stereo not shown) [CBK281384],73.8,–
CC(CN1CCCC1)NC(=O)c1ccc2c(c1)ncn2C (stereo not shown) [CBK281715],102,–
COc1ccc(Sc2cc(C(F)(F)F)ccn2)cc1OC [CBK093762],92.5,–
Cc1sc(NC(=O)c2ccccc2)c(C(Nc2ccccn2)c2ccc(F)cc2)c1C (stereo not shown) [CBK296957],89.7,–
CC(C)c1ccc(NC(=O)CSc2nnc(CN3CCOCC3)n2C)cc1 [CBK268235],93.7,–
O=C(CCn1c(C(F)F)cc2cccnc21)NCc1cccnc1 [CBK285066],91.9,–
COc1ccccc1C1(O)CC2CCC(C1)N2 (stereo not shown) [CBK281369],81.9,–
CS(=O)(=O)c1ccc(-c2ccc(C(=O)NCc3ccccc3)cn2)cc1 [CBK158885],89.2,–
O=C(N[C@@H]1C[C@H]1c1ccccc1)N1CCC2(CC1)OCc1cc(F)ccc1O2 [CBK060724],–,82.1
O=C(O)c1ccc(CNCc2ccc(-c3ccc(F)cc3)o2)cc1 [CBK269622C],90.9,–
O=C(O)c1cccc2c1C(=O)N(Cc1cccnc1)C2 [CBK291193],119,–
CCNc1nc2c(c(=O)[nH]c(=O)n2C)n1CCCc1ccccc1 [CBK269243],94.6,–
Cc1ccccc1OC(C)C(=O)Nc1ccc(S(=O)(=O)N2CCCC2)cc1 (stereo not shown) [CBK269367],89.7,–
O=C(CCc1ccco1)N1CCCC1c1nc2ccccc2[nH]1 (stereo not shown) [CBK283767],104,–
COc1ccc(NC(=O)c2cc(C(F)(F)F)cc(C(F)(F)F)c2)cn1 [CBK057634],85.1,–
N#CCCn1cc(C(=O)N2CCCCC2)c(-c2ccccc2)n1 [CBK305931],100,–
CN1CCC[C@H]1C(=O)Nc1cccc2cc[nH]c12 [CBK160098],104,–
O=C(c1cc(F)c(F)cc1F)N1CCC2(CCCN(Cc3ccc4ccccc4c3)C2)C1 (stereo not shown) [CBK131998],97.8,–
Cc1cc(C)c(S(=O)(=O)Nc2ccccc2C(=O)NCc2ccco2)c(C)c1 [CBK266382],98.2,–

Structure (SMILES),"viability at 28.5 h, 10 µM [%]","viability at 28.5 h, 10 µM (bulk resorufin, single well) [%]"
Cc1nc2nc(N)nn2c(C)c1CCC(=O)NCc1ccccc1 [CBK304986],95.7,–
CCC(=O)N1CCC(c2cc(C(F)(F)F)n3nc(C)cc3n2)CC1 [CBK284367],96.9,–
COCC(=O)N1CCC(Cc2ccc(-c3cccc(C)c3)cc2)(C(=O)NC(C)C)CC1 [CBK285759],93.6,–
Cc1ccc(S(=O)(=O)N(C)c2c(C)ccc(S(=O)(=O)N3CCN(C)CC3)c2C)cc1 [CBK265642],96.1,–
O=C(CC1CCN(C(=O)Cc2ccccc2)CC1)NC1(c2ccccc2)CCCC1 [CBK285965],101,–
CNS(=O)(=O)c1cc(C(=O)O)ccc1OC [CBK270179],104,–
O=C(O)C1C2C=CC3(CN(C4CCCCC4)C(=O)C13)O2 (stereo not shown) [CBK287248],84.8,–
O=C(N/N=C/c1ccc([N+](=O)[O-])cc1)C(=O)Nc1cccc(Cl)c1 [CBK261821],95.8,–
CS(=O)(=O)N[C@H]1C[C@H]2C(=O)Nc3ccc(-c4cccs4)cc3C(=O)N2C1 [CBK289359],95.7,–
Nc1ccc(-c2cnc(NCc3ccc4c(c3)OCO4)c(C(=O)Nc3ccc4c(c3)OCCO4)c2)cc1 [CBK138480T],106,–
Cc1sc2ncn(CC(=O)NC3CCOc4ccccc43)c(=O)c2c1C (stereo not shown) [CBK304562],86.3,–
Cc1cnn(CC2CCCCN2CC(=O)NCc2ccccn2)c1 (stereo not shown) [CBK304041],110,–
CS(=O)(=O)NC1CCN(C2CCc3c(F)cc(F)cc32)C1 (stereo not shown) [CBK305101],90.1,–
OC(CN1CCC(O)(c2ccc(F)cc2)CC1)c1ccc(F)cc1 (stereo not shown) [CBK282510],79,–
O=C(NC(=S)Nc1cccc2c(O)cccc12)c1ccc(-c2ccccc2)cc1 [CBK269022],85.3,–
CCn1cc(-c2cncn2CCCC(C)(C)CO)cn1 [CBK281704],88.3,–
N#CC1=C(N)N2C(=C(C#N)C13CCN(Cc1ccccc1)CC3)Nc1ccccc12 [CBK267241],108,–
COc1ccc(Br)cc1/C=N/NC(=O)C1CC(c2ccccc2)(c2ccccc2)C1 [CBK263218],88.8,–
O=[N+]([O-])c1c(N(CCO)CCO)cc(Cl)c2nonc12 [CBK261446],92.5,–
O=C1NC(c2ccccc2)=NC1(NS(=O)(=O)c1ccccc1)C(F)(F)F (stereo not shown) [CBK267474],88.3,–
NC1=C(c2nc3ccccc3s2)C(=O)CN1CCCN1CCOCC1 [CBK265925],109,–
O=C(Nc1sc2c(c1C(=O)O)CCC2)c1ccco1 [CBK152436],101,–

Structure (SMILES),"viability at 28.5 h, 10 µM [%]","viability at 28.5 h, 10 µM (bulk resorufin, single well) [%]"
O=C(NCCCN1CCOCC1)c1cc(Cl)ccc1[N+](=O)[O-] [CBK265470],108,–
c1ccc2c(Sc3nccnc3N3CCCC3)cccc2c1 [CBK089527],89.2,–
O=C(O)C1CCC1C(=O)N1CCN(c2nc3ccc(Cl)cc3s2)CC1 (stereo not shown) [CBK057108],92.4,–
CCOc1ccc(OC(=O)c2ccc3c(c2)OCO3)cc1 [CBK149205],92.6,–
COC1CCC(C(=O)N2CCC(COc3ccc(-c4ccc(S(C)(=O)=O)cc4)cn3)CC2)CC1 (stereo not shown) [CBK161995],80.3,–
Cc1ccn2cc(CNC(=O)CN3CCOc4ccccc4C3)nc2c1 [CBK307518],84.6,–
O=C(NCC1COc2ccccc2O1)c1ccc(-c2ccccc2)nc1NCCc1ccccn1 (stereo not shown) [CBK076554],95.9,–
CC1CCCCC12NC(=O)N(Cc1csc(-c3cccs3)n1)C2=O (stereo not shown) [CBK305829],98.4,–
Cc1c(C(=O)N2CCCCC2C(N)=O)nnn1Cc1ccc(F)cc1F (stereo not shown) [CBK304425],93.7,–
Cc1cc2oc(=O)c3c(c2cc1C)CCN(C)C3 [CBK017803],97,–
O=C(O)c1ccc(OCc2n[nH]c(=S)n2-c2ccc(Cl)cc2)cc1 [CBK014317],102,–
CCCCn1c(SCCC(=O)Nc2ccccc2C(=O)c2ccccc2)n[nH]c1=O [CBK296693],87.3,–
NC(=O)C1CCN(C(=O)c2cc3c(=O)n4ccccc4nc3s2)CC1 [CBK296938],89.9,–
COc1ccc(C)cc1S(=O)(=O)Nc1cc(Cl)ccc1C(=O)NCc1ccccc1 [CBK113954],85.5,–
O=C(CSCc1nc2ccccc2[nH]1)Nc1cccc(C(F)(F)F)c1 [CBK268474],101,–
COc1cccc(CNC(=O)c2cn[nH]c2-c2cccc(C)c2)c1 [CBK288056],102,–
CCNc1cncc(-c2ccccc2)n1 [CBK065847],85.5,–
CC(C)(C)c1ccc(OCC(=O)Nn2cnnc2)cc1 [CBK027576],90.3,–
COc1ccc(C(=O)N2CCN(Cc3ccccc3)CC2)c(OC)n1 [CBK200169],99.2,–
Cc1cc(C)n(CCCC(=O)N2C[C@H]3CCc4c[nH]nc4[C@H]3C2)n1 [CBK284573],101,–
CCCS(=O)(=O)N1CCC(C(=O)NCc2ccc(Cl)cc2Cl)CC1 [CBK305559],102,–
COCCNc1nc(-c2ccc3ccccc3c2)cn2ccnc12 [CBK066138],103,–

Structure (SMILES),"viability at 28.5 h, 10 µM [%]","viability at 28.5 h, 10 µM (bulk resorufin, single well) [%]"
COc1ccc(S(=O)(=O)NC(C)C(=O)NCc2ccccn2)cc1Cl (stereo not shown) [CBK269275],101,–
O=C(CCc1cccnc1)NC1CCCC1 [CBK200239],97.9,–
COc1ccc(Oc2cncc(OC3CCN(CC(=O)Nc4c(C)cccc4C)C3)n2)cc1OC (stereo not shown) [CBK084403],101,–
CCC(C)c1ccc(NC(=S)NCCn2cc(Cl)cn2)cc1 (stereo not shown) [CBK267101],90.7,–
COc1ccc(Nc2ccc(-c3ccsc3)cn2)c(C)c1 [CBK036855],109,–
Cc1nc(COc2ccc(C(=O)Nc3ccc(C(=O)O)cc3C)cc2)cs1 [CBK295360],91.3,–
COC(=O)Cc1nc(NS(=O)(=O)c2ccc(Oc3cccc(Cl)c3C#N)cc2)sc1C [CBK000744],98.3,–
CN1CCC(N(C)Cc2ccc3c(c2)OCO3)CC1 [CBK261564],86.8,–
O=P(O)(O)Cc1ccccc1-c1ccccc1 [CBK012659],111,–
COc1ccc(OC)c(CN2CCCN(C)CC2)c1 [CBK261554],96.1,–
CC1=CCC2(CC1)COC(C(C)(C)CN(C)C)OC2 (stereo not shown) [CBK011369],91.7,–
COc1ccc(F)c(CN(CC(C)(C)CN)C(=O)Nc2ccccc2C(F)(F)F)c1 [CBK002412C],90.1,–
COc1cc(-c2cnc3[nH]c(=O)n(C4CCOCC4)c3n2)cc(OC)c1OC [CBK064255],94.6,–
N#Cc1ccnc(N2CCC3(CCCN(CC4CCCCC4)C3=O)C2)c1 (stereo not shown) [CBK306561],96.9,–
COc1ccc(N2C(=O)C3C(CC(C)C)NC4(C(=O)N(CC(=O)Nc5ccc(C)cc5)c5ccccc54)C3C2=O)cc1 (stereo not shown) [CBK266034],95.9,–
Cc1nc(C2CCN(C(=O)C3CCC3)CC2)nc2c1CCCN2CCc1ccccc1 [CBK285645],97.3,–
CC(CNC(=O)c1cncc(Br)c1)NC(=O)c1cncc(Br)c1 (stereo not shown) [CBK262040],91.6,–
COc1ccc(CCN2CCC(Oc3cncc(OCC4COc5ccccc5O4)n3)C2)cc1OC (stereo not shown) [CBK084389],112,–
COc1cc(C(=O)N2CCN(c3cc(C(C)C)ccc(CO)c3=O)CC2)cc(OC)c1OC [CBK007673],91,–
Cc1nc(CCNC(=O)c2cc(C(C)C)n(C(C)(C)C)n2)cs1 [CBK304082],89.2,–
O=[N+]([O-])c1ccc(/C=N/c2ccc(Cc3ccc(/N=C/c4ccc([N+](=O)[O-])s4)cc3)cc2)s1 [CBK261228],98.3,–
O=C(Nc1ccccc1F)C1CCCN1c1nc(O)cc(C(F)(F)F)n1 (stereo not shown) [CBK004307],105,–
